Experiments:
[1] = system: lung arginase; experiment: Arginase activity in lung lysates incubated with NOHA in vitro (blood urea nitrogen reagent); type: biochemical, mice
Description: (§1) FIGS. 11A and 11B are line graphs showing the results of treating lung lysates with N(omega)-hydroxy-L-arginine (NOHA). FIG. 11A illustrates in vitro treatment of lung lysates from […] with NOHA. FIG. 11B illustrates in vitro treatment of transgenic mice that overexpress interleukin 4 with NOHA.
(§2) Arginase activity was measured using the blood urea nitrogen reagent (Sigma Chemical Company, St. Louis, Mo.) according to established techniques as exemplified in Wei, L. H., et al., Proc Natl Acad Sci USA 98, 9260-4. (2001); Li, H. et al. Am J Physiol Regul Integr Comp Physiol 282, R64-R69. (2002); Wei, L. H. et al., Am J Physiol Cell Physiol 279, C248-56. (2000). To measure levels of putrescine following acid extraction, ion-pair reverse phase high performance liquid chromatography was performed.
(§3) IL-4 lung transgenic mice, which have markedly elevated level of lung arginase mRNA and activity, were used to examine the effect of NOHA in vitro and in vivo (FIG. 11). In FIG. 11A, lung lysates from IL-4 lung transgenic mice were incubated with NOHA and the arginase activity at different doses of NOHA (x axis) and arginine is shown. In FIG. 11B, IL-4 transgenic mice were treated with intratracheal NOHA (two doses: 10 and 100 mcg) and the arginase activity in the lungs was measured 4 hrs later.

[2] = system: lung arginase; experiment: Lung arginase activity after intratracheal NOHA in IL-4 lung transgenic mice; type: in vivo; settings: IL-4 transgenic mice, intratracheal NOHA 10 and 100 mcg, measured 4 hrs later, FIG. 11B
Description: as §1, §2, §3

[3] = system: IL4/IL5 lung transgenic mice; experiment: Airway hyperresponsiveness to methacholine (Penh, barometric plethysmography) after intratracheal NOHA; type: in vivo; settings: intratracheal NOHA 100 mcg, Penh recorded 4 hrs later, Example 20, FIG. 12
Description: FIG. 12 is a line graph showing the results of airway hyperreactivity measurements (recorded as Penh) in asthmatic mice (IL4/IL5 bitransgenic lung mice) treated with intratracheal NOHA. Airway reactivity to methacholine was assessed in conscious, unrestrained mice by barometric plethysmography, using apparatus and software supplied by Buxco (Troy, N.Y.). This system yields a dimensionless parameter known as enhanced pause (Penh), reflecting changes in wave-form of the pressure signal from the plethysmography chamber combined with a timing comparison of early and late expiration, which can be used to empirically monitor airway function. […]

[4] = system: asthma; experiment: Treatment of individual suffering from asthma with anti-arginase compound (inhalation); type: in vivo; settings: inhalation of therapeutically effective amount
Source text: An individual suffering from asthma is identified. The individual is provided with a therapeutically effective amount of N(omega)-hydroxy-L-arginine to reduce the indications of asthma.

SMILES: N=C(NO)NCCC[C@H](N)C(=O)O [NOHA, N(omega)-hydroxy-L-arginine]
- arginase activity in lung lysates ([1]; lung lysates from IL-4 lung transgenic mice incubated with different doses of NOHA and arginine, FIG. 11A): effective to reduce arginase activity in lung lysates
- arginase activity in the asthmatic lung ([1]; summary statement referring to Example 15): blocks arginase activity in the asthmatic lung
- arginase activity in the lungs [2]: effective to reduce arginase activity
- development of allergen-induced airway hyperresponsiveness (Penh) [3]: blocks the development of allergen-induced airway hyperesponsiveness
- asthma symptoms [4]: asthma symptoms are reduced
